Results as given in US3974140A, “Ureidoacetamido-penicillins” (Bayer Aktiengesellschaft, priority 1970, dated 1976).
Values joined by “and” are separate entries in the source; they are usually repeats but may differ in a detail not shown here. Equal entries are not always repeated.

How the values were obtained:
Experiment in all cases: MIC, liquid medium test tube series dilution test
[1] = tested on: Psdm. aerug. Bonn; format: cell-based, Pseudomonas aerug.; conditions: 24 hours, 37°C
Outline: (§1)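 Broth tube serial dilution in complete nutrient medium; tubes read after 24 hours' incubation at 37°C. MIC taken as the concentration in the non-turbid tube of the dilution series, expressed in units/ml.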

[2] = tested on: Psdm. aerug. Walter; format: cell-based, Pseudomonas aerug.; conditions: 24 hours, 37°C
Outline: as §1

[3] = tested on: Staph. aureus 133; format: cell-based, Staphylococcus aureus; conditions: Staph. aureus 133, 24 hours, 37°C
Outline: as §1

[4] = tested on: Staph. aureus 1777 E; format: cell-based, Staphylococcus aureus; conditions: 24 hours, 37°C
Outline: as §1

[5] = tested on: Streptoc. faec. ATCC 9790; format: cell-based; conditions: Strep. faec. (Enterococcus) ATCC 9790, 24 hours, 37°C
Outline: as §1

[6] = tested on: Klebsiella K 10; format: cell-based; conditions: Klebsiella K 10, 24 hours, 37°C
Outline: as §1

[7] = tested on: E. coli 183/58; format: cell-based; conditions: E. coli 183/58, 24 hours, 37°C
Outline: as §1

[8] = tested on: E. coli 14; format: cell-based; conditions: E. coli 14, 24 hours, 37°C
Outline: as §1

[9] = tested on: E. coli A 261; format: cell-based; conditions: E. coli A 261, 24 hours, 37°C
Outline: as §1

[10] = tested on: E. coli C 165; format: cell-based; conditions: E. coli C 165, 24 hours, 37°C
Outline: as §1

[11] = tested on: Klebsiella 63; format: cell-based; conditions: Klebsiella 63, 24 hours, 37°C
Outline: as §1

[12] = tested on: Proteus vulg. 1017; format: cell-based, Proteus vulgaris; conditions: Proteus vulg. 1017, 24 hours, 37°C
Outline: as §1

[13] = tested on: Proteus vulg. 3400; format: cell-based, Proteus vulgaris; conditions: Proteus vulg. 3400, 24 hours, 37°C
Outline: as §1

| Compound | MIC [1] | MIC [2] | MIC [3] | MIC [4] | MIC [5] | MIC [6] | MIC [7] | MIC [8] | MIC [9] | MIC [10] | MIC [11] | MIC [12] | MIC [13] | other results |
| --- | --- | --- | --- | --- | --- | --- | --- | --- | --- | --- | --- | --- | --- | --- |
| CC1(C)S[C@@H]2[C@H](NC(=O)[C@H](NC(=O)N3CCNC3=O)c3ccccc3)C(=O)N2[C@H]1C(=O)O [Example 53, D(-)-α-[(Imidazolidin-2-on-1-yl)-carbonylamino]-benzylpenicillin] | 6,25 units/ml | 12,5 units/ml | < 0,78 units/ml | 200 units/ml | 12,5 units/ml | 50 units/ml | 12,5 units/ml | 3,12 units/ml | 400 units/ml | 6,25 units/ml | 25 units/ml | 6,25 units/ml | 12,5 units/ml | – |
| CSc1ccc(C(NC(=O)N2CCNC2=O)C(=O)N[C@@H]2C(=O)N3[C@@H]2SC(C)(C)[C@@H]3C(=O)O)cc1 (stereo partly drawn) [Example 54, Sodium α-[(imidazolidin-2-on-1-yl)-carbonylamino]-4-methylthiobenzylpenicillin] | 12,5 units/ml | 25 units/ml | < 0,78 units/ml | 200 units/ml | 50 units/ml | 100 units/ml | 6,25 units/ml | 6,25 units/ml | > 400 units/ml | 25 units/ml | 100 units/ml | 200 units/ml | 100 units/ml | – |
| CSc1ccc(C(NC(=O)N2CCNC2=O)C(=O)N[C@@H]2C(=O)N3[C@@H]2SC(C)(C)[C@@H]3C(=O)O)cc1 (stereo partly drawn) [Example 55, Sodium α-[(imidazolidin-2-on-1-yl)-carbonylamino]-4-methylthiobenzylpenicillin] | 12,5 units/ml | 25 units/ml | < 0,78 units/ml | 200 units/ml | 50 units/ml | 100 units/ml | 12,5 units/ml | 6,25 units/ml | > 400 units/ml | 25 units/ml | 100 units/ml | 100 units/ml | 100 units/ml | – |
| CCOC(=O)N(C)C(=O)N[C@@H](C(=O)N[C@@H]1C(=O)N2[C@@H]1SC(C)(C)[C@@H]2C(=O)O)c1ccccc1 [Example 61, Sodium D(-)-α-(3-ethoxycarbonyl-3-methyl-ureido)-benzylpenicillin] | 12.5 units/ml | 25 units/ml | < 0.78 units/ml | 200 units/ml | 50 units/ml | 100 units/ml | 6.25 units/ml | 3.12 units/ml | > 400 units/ml | 6.25 units/ml | 50 units/ml | 25 units/ml | 25 units/ml | – |
| CN(C(=O)N[C@@H](C(=O)N[C@@H]1C(=O)N2[C@@H]1SC(C)(C)[C@@H]2C(=O)O)c1ccccc1)C(=O)C1CCCCC1 [Example 62] | 12 units/ml and 12.5 units/ml | 25 units/ml | < 0.78 units/ml | 400 units/ml | 100 units/ml | 100 units/ml | 3.12 units/ml | 1.56 units/ml | 400 units/ml | 6.25 units/ml | 100 units/ml | 6.25 units/ml | 6.25 units/ml | – |
| CN(C(=O)C=Cc1ccccc1)C(=O)N[C@@H](C(=O)N[C@@H]1C(=O)N2[C@@H]1SC(C)(C)[C@@H]2C(=O)O)c1ccccc1 [Example 63, Sodium D(-)-α-(3-cinnamoyl-3-methyl-ureido)-benzylpenicillin] | 6.25 units/ml | 12.5 units/ml | < 0.78 units/ml | 200 units/ml | 50 units/ml | 50 units/ml | < 0.78 units/ml | < 0.78 units/ml | 400 units/ml | 1.56 units/ml | 50 units/ml | 1.56 units/ml | 3.12 units/ml | – |
| CCCCOC(=O)N(C)C(=O)N[C@@H](C(=O)N[C@@H]1C(=O)N2[C@@H]1SC(C)(C)[C@@H]2C(=O)O)c1ccccc1 [Example 98, Sodium D(-)-α-(3-n-butoxycarbonyl-3-methyl-ureido)-benzylpenicillin] | 12.5 units/ml | 25 units/ml | < 0.78 units/ml | 200 units/ml | 100 units/ml | 400 units/ml | 6.25 units/ml | 3.12 units/ml | > 400 units/ml | 6.25 units/ml | 400 units/ml | 12.5 units/ml | 25 units/ml | MIC ([1]; listed as (B) of Example 28): 12.5 units/ml; MIC ([2]; listed as (B) of Example 28): 25 units/ml; MIC ([3]; listed as (B) of Example 28): < 0.78 units/ml; MIC ([7]; listed as (B) of Example 28): 6.25 units/ml; MIC ([8]; listed as (B) of Example 28): 3.12 units/ml; MIC ([10]; listed as (B) of Example 28): 6.25 units/ml; MIC ([12]; listed as (B) of Example 28): 12.5 units/ml; MIC ([13]; listed as (B) of Example 28): 25 units/ml |
| CNC(=O)N(C)C(=O)N[C@@H](C(=O)N[C@@H]1C(=O)N2[C@@H]1SC(C)(C)[C@@H]2C(=O)O)c1ccccc1 [Example 110, Sodium D(-)-α-(3-methylaminocarbonyl-3-methyl-ureido)-benzylpenicillin] | 20-100 units/ml | 20-100 units/ml | 0.8 units/ml | 20-100 units/ml | 4-20 units/ml | 4-20 units/ml | 4-20 units/ml | 0.8-4 units/ml | 100-500 units/ml | 4-20 units/ml | 4-20 units/ml | 4-20 units/ml | 4-20 units/ml | – |
| CN(C(=O)N[C@@H](C(=O)N[C@@H]1C(=O)N2[C@@H]1SC(C)(C)[C@@H]2C(=O)O)c1ccccc1)C(=O)c1cc(Cl)ccc1Cl [Example 111, Sodium D(-)-α-(3-[2,5-dichlorobenzoyl]-3-methyl-ureido)-benzylpenicillin] | 4-20 units/ml | 4-20 units/ml | 0.8 units/ml | 4-20 units/ml | 4-20 units/ml | 4-20 units/ml | < 0.8 units/ml | < 0.8 units/ml | 20-100 units/ml | 0.8-4 units/ml | 4-20 units/ml | 0.8-4 units/ml | 0.8-4 units/ml | – |
| CN(C(=O)N[C@@H](C(=O)N[C@@H]1C(=O)N2[C@@H]1SC(C)(C)[C@@H]2C(=O)O)c1ccccc1)C(=O)c1ccc(Cl)cc1 [Example 112, Sodium D(-)-α-(3-p-chlorebenzoyl-3-methyl-ureido)-benzylpenicillin] | 4- 20 units/ml | 4-20 units/ml | 0.8 units/ml | 20-100 units/ml | 4-20 units/ml | 4-20 units/ml | < 0.8 units/ml | < 0.8 units/ml | 20-100 units/ml | 0.8-4 units/ml | 4-20 units/ml | 0.8-4 units/ml | 0.8-4 units/ml | – |
| CN(C(=O)N[C@@H](C(=O)N[C@@H]1C(=O)N2[C@@H]1SC(C)(C)[C@@H]2C(=O)O)c1ccccc1)C(=O)c1cccc(Cl)c1 [Example 117, Sodium D(-)-α-(3-m-chlorobenzoyl-3-methyl-ureido)-benzylpenicillin] | 12.5 units/ml | 12.5 units/ml | 0.8 units/ml | 12.5 units/ml | 50 units/ml | 6.25 units/ml | 1.56 units/ml | < 0.78 units/ml | 50 units/ml | 1.56 units/ml | 12.5 units/ml | 3.12 units/ml | 3.12 units/ml | – |
| CC(=O)N(C)C(=O)NC(C(=O)N[C@@H]1C(=O)N2[C@@H]1SC(C)(C)[C@@H]2C(=O)O)c1ccc(C)cc1 (stereo partly drawn) [Example 118, Sodium α-(3-acetyl-3-methyl-ureido)-4-methylbenzylpenicillin] | 200 units/ml | 200 units/ml | 1.6 units/ml | 100 units/ml | 50 units/ml | 100 units/ml | 200 units/ml | 12.5 units/ml | > 400 units/ml | 50 units/ml | 200 units/ml | 100 units/ml | 200 units/ml | – |
